Source: PMC8042770, “Odorant Receptors for Detecting Flowering Plant Cues Are Functionally Conserved across Moths and Butterflies” (Molecular Biology and Evolution, 2020)
Entries after “also recorded” stand apart in the source; their conditions may differ.

Key:
HarmOR60 = biological target: T1, HarmOR60 (Helicoverpa armigera, UniProt A0A7T3N1B9); test: Xenopus oocyte two-electrode voltage clamp, HarmOR60 + Orco; type: cell-based; details: HarmOR60; dose response in oocytes; unit M
T1 sequence (A0A7T3N1B9 1-391): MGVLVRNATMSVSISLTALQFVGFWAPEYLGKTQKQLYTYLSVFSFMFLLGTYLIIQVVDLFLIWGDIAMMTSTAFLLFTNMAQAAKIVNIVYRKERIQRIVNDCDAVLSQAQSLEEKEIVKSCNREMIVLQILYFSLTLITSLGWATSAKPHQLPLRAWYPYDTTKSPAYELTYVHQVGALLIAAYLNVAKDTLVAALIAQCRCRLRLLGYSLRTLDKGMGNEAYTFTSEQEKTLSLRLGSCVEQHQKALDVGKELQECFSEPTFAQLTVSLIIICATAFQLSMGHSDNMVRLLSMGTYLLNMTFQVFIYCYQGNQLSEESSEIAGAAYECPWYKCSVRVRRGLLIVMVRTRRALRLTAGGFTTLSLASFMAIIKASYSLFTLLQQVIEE
Method: (§1) In order to expand our analysis on the response properties of HarmORs, we conducted dose–response analyses for the 28 functional HarmORs. […] Six HarmORs (OR3, 22, 48, 50, 56, and 66) could not be activated by any ligand at 10^−5 M. For the other 22 HarmORs, dose–response curves were generated and EC50 values of their major ligands were calculated (fig. 2A and supplementary table S2, Supplementary Material online). The HarmOR repertoire was highly efficient in terpene detection, since the lowest EC50 values were obtained for such compounds. Many of these terpenes have been proposed to be defensive chemicals of plants. […] DMNT is also one of the oviposition deterring compounds found in larval frass of some Lepidoptera species such as S. littoralis ([Anderson et al. 1993]).
(§2) Functional characterization of individual ORs was performed by heterologous expression in Xenopus oocytes combined with a two-electrode voltage-clamp system ([Wang et al. 2010]). Briefly, the full-length gene of each OR and Orco were subcloned into the eukaryotic expression vector pT7TS. cRNAs were generated from linearized expression vectors using the mMESSAGE mMACHINE T7 kit (Ambion, Austin, TX). Then, the cRNA mixture of ORx and Orco (27.6 ng each) was injected (Nanoliter 2010, WPI Inc., Sarasota, FL) into oocytes (stage V–VII). The respective Orcos of different species were used for functional studies of OR42 orthologs except for the four butterfly species (V. tameamea, P. xuthus, D. plexippus, and P. rapae), in which we used the Orco from P. xuthus. After incubation in nutrient solution at 18 °C for 3–5 days, the response profile of each oocyte to multiple plant odorants was recorded via a two-electrode voltage clamp (OC-725C oocyte clamp, Warner Instruments, Hamden, CT) at a holding potential of −80 mV. Data were acquired by using a Digidata 1440 A and were analyzed by pCLAMP 10.2 software (Axon Instruments Inc., Union City, CA). […]

HarmOR59 = HarmOR59 (Helicoverpa armigera, UniProt A0A7T3KAU6); test: Xenopus oocyte two-electrode voltage clamp, HarmOR59 + Orco; type: cell-based
Method: as §1
(§3) Functional characterization of individual ORs was performed by heterologous expression in Xenopus oocytes combined with a two-electrode voltage-clamp system ([Wang et al. 2010]). Briefly, the full-length gene of each OR and Orco were subcloned into the eukaryotic expression vector pT7TS. cRNAs were generated from linearized expression vectors using the mMESSAGE mMACHINE T7 kit (Ambion, Austin, TX). Then, the cRNA mixture of ORx and Orco (27.6 ng each) was injected (Nanoliter 2010, WPI Inc., Sarasota, FL) into oocytes (stage V–VII). The respective Orcos of different species were used for functional studies of OR42 orthologs except for the four butterfly species (V. tameamea, P. xuthus, D. plexippus, and P. rapae), in which we used the Orco from P. xuthus. After incubation in nutrient solution at 18 °C for 3–5 days, the response profile of each oocyte to multiple plant odorants was recorded via a two-electrode voltage clamp (OC-725C oocyte clamp, Warner Instruments, Hamden, CT) at a holding potential of −80 mV. Data were acquired by using a Digidata 1440 A and were analyzed by pCLAMP 10.2 software (Axon Instruments Inc., Union City, CA).
(§4) Stock solutions of each odorant were prepared at 1 M using DMSO as a solvent, and each odorant was diluted in 1× Ringer’s solution to the indicated concentrations for electrophysiological recording. For functional screening of each HarmOR, a panel of 67 odorants belonging to three types of chemical classes: terpenes, aromatics, and aliphatics (short-chain fatty acid) were used (supplementary table S1, Supplementary Material online). For functional studies of OR42 orthologs from different species, six odorants including PAA, benzaldehyde, (E)-2-hexen-1-al, cinnamaldehyde, 2-phenylethanol, and heptanal were used.

EsemOR19 = test: Xenopus oocyte voltage clamp of EsemOR19; type: cell-based, Eriocrania semipurpurella; details: 10^−4 M
Description: We also examined the response profile of EsemOR19 from E. semipurpurella, an OR that falls close to the HarmOR42-defined clade but that is not considered as a HarmOR42 ortholog. […] We also characterized the function of RnubOR13 from R. nubila (Trichoptera), a species from a sister order of Lepidoptera. […] Unfortunately, the putative E. semipurpurella OR that would consist of EsemOR34 + 35 and that falls at the base of the HarmOR42 clade could not be tested as it is incomplete.
Full-length coding sequences of 45 ORs (including Orco) of H. armigera, and OR42 and Orco orthologs in B. mori, H. assulta, G. molesta, and M. separate were amplified from the antennal cDNA of each species adults by PCR with specific primer pairs of each gene. […]
(§5) Functional characterization of individual ORs was performed by heterologous expression in Xenopus oocytes combined with a two-electrode voltage-clamp system ([Wang et al. 2010]). […] After incubation in nutrient solution at 18 °C for 3–5 days, the response profile of each oocyte to multiple plant odorants was recorded via a two-electrode voltage clamp (OC-725C oocyte clamp, Warner Instruments, Hamden, CT) at a holding potential of −80 mV. Data were acquired by using a Digidata 1440 A and were analyzed by pCLAMP 10.2 software (Axon Instruments Inc., Union City, CA). […]

[1] = test system: HarmOR42 orthologs from 11 lepidopteran species; test: Xenopus oocyte voltage clamp of HarmOR42 orthologs, six-odorant screen; type: cell-based; details: six compounds at 10^−4 M; 11 species
Description: We gathered additional experimental evidence to support this conservation of a PAA-sensing function by performing in vitro functional characterization of HarmOR42 orthologs from 11 lepidopteran species belonging to eight families (fig. 5B). […] It should be noted that the species studied here included three Noctuidae species (H. armigera, H. assulta, and Mythimna separata), four moths from Bombycidae (Bombyx mori), Crambidae (Chilo suppressalis), Sphingidae (Manduca sexta), and Tortricidae (Grapholitha molesta) ([Mitter et al. 2017]; [Kawahara et al. 2019]), and four diurnal butterfly species from diverse families (Vanessa tameamea, Papilio xuthus, Danaus plexippus, and Pieris rapae) (fig. 5B). […]
as §5

[2] = test system: H. armigera moth antennae; test: Electroantennography (EAG), wild-type vs HarmOR42 knock-out moths; type: in vivo, Helicoverpa armigera; details: single odorants, 1 μg
Description: We next conducted a loss-of-function study by generating a HarmOR42-lacking H. armigera strain by CRISPR/Cas9 targeting the first coding exon. Homozygous mutants were obtained with a large segment deletion of 203 bp and a 6-bp nonhomologous insertion in the genome (fig. 6B), introducing a premature stop codon in the coding sequence. […] The most likely hypothesis is that HarmOR42 is not the major receptor for sensing this compound in H. armigera. As a control, we tested the response of male moths to the sex pheromone component Z11-16: Ald that is not a ligand of HarmOR42. As expected, we observed no difference between the EAG responses of mutant and wild-type moths to this compound.
The antennae of 2- to 3-day-old virgin male and female moths were cut at the base of the flagellum. After removing the tip, one antenna was inserted between two glass electrodes filled with 0.1 M KCl solution. In each test, a 10-μl solution of each odorant was added onto a piece of filter paper (0.5 cm × 0.5 cm) and then inserted into a Pasteur pipette. About 100 ng/μl stock solutions of individual odorants and different doses of the mixture IAC were prepared with paraffin oil. A continuous airflow of 30 ml/s was produced by a stimulus controller (CS-55, Syntech, Kirchzarten, Germany). Odor stimulation was controlled by a puff of purified air (0.2 s at 10 ml/s airflow) from the CS-55. EAG signals were amplified with a 10× AC/DC headstage preamplifier (Syntech) and further acquired with an Intelligent Data Acquisition Controller (IDAC-4-USB, Syntech) ([Cao et al. 2016]). The signals were recorded, monitored, and analyzed using Syntech EAG-software (Syntech, Germany). The EAG response values for each compound were calculated by subtracting the value of the same antennae corresponding to a solvent blank of paraffin oil.

HarmOR42 = HarmOR42 (Helicoverpa armigera, UniProt A0A7T3KAF6); test: Xenopus oocyte two-electrode voltage clamp, HarmOR42 + Orco; type: cell-based; details: 67 odorants at 10^−4 M
Description: In preliminary screening, we used a high dosage (10^−4 M) of odorants. […] Most functional ORs responded robustly to multiple odorants. The strongest response (up to ∼6,000 nanoampere, nA) we detected was that of HarmOR42 toward the aromatic compound PAA. Further, the response profiles of the 28 HarmORs appeared to be highly differentiated, with no apparent overlap in their tuning spectra (with the exception of HarmOR12 and 36) according to functional cluster analysis (fig. 1A).
as §1, §3, §4

HarmOR31 = HarmOR31 (Helicoverpa armigera, UniProt A0A7T3N2E9); test: Xenopus oocyte two-electrode voltage clamp, HarmOR31 + Orco; type: cell-based
Description: In order to expand our analysis on the response properties of HarmORs, we conducted dose–response analyses for the 28 functional HarmORs. […] Many of these terpenes have been proposed to be defensive chemicals of plants.
Briefly, the full-length gene of each OR and Orco were subcloned into the eukaryotic expression vector pT7TS. cRNAs were generated from linearized expression vectors using the mMESSAGE mMACHINE T7 kit (Ambion, Austin, TX). […] The respective Orcos of different species were used for functional studies of OR42 orthologs except for the four butterfly species (V. tameamea, P. xuthus, D. plexippus, and P. rapae), in which we used the Orco from P. xuthus.
as §4

HarmOR27 = biological target: T2, HarmOR27 (Helicoverpa armigera, UniProt A0A7T3KAG1); test: Xenopus oocyte two-electrode voltage clamp, HarmOR27 + Orco; type: cell-based
T2 sequence (A0A7T3KAG1 1-426): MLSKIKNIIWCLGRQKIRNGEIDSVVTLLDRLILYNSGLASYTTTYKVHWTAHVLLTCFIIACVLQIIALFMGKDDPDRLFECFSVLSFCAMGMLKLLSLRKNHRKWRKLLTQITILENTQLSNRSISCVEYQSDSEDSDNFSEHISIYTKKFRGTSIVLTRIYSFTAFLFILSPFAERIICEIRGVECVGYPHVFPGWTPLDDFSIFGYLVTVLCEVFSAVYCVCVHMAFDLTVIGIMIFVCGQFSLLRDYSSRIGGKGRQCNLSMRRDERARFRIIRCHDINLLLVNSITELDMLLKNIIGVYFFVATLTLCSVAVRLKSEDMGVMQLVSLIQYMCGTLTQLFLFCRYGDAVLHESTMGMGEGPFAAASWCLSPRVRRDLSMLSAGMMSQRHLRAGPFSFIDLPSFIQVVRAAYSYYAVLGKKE
Method: as §1, §3, §4

HarmOR19 = biological target: T3, HarmOR19 (Helicoverpa armigera, UniProt A0A7T3N0J7); test: Xenopus oocyte two-electrode voltage clamp, HarmOR19 + Orco; type: cell-based; details: dose response in oocytes, unit M
T3 sequence (A0A7T3N0J7 1-402): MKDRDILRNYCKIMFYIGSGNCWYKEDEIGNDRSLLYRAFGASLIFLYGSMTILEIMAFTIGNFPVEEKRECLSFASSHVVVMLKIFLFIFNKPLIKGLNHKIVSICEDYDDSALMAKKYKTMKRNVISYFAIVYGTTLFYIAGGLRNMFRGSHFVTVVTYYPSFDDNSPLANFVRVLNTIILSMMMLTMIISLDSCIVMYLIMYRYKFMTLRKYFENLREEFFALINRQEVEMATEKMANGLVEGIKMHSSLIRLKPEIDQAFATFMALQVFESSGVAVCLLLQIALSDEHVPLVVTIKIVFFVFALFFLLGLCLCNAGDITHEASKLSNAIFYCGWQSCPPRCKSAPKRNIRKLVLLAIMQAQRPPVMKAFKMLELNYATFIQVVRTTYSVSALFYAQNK
Method: as §1, §2

HarmOR67 = HarmOR67 (Helicoverpa armigera, UniProt A0A7T3KAH1); test: Xenopus oocyte two-electrode voltage clamp, HarmOR67 + Orco; type: cell-based; details: dose response in oocytes, unit M
Method: as §1, §2

HarmOR43 = biological target: T4, HarmOR43 (Helicoverpa armigera, UniProt A0A7T3KAF8); test: Xenopus oocyte two-electrode voltage clamp, HarmOR43 + Orco; type: cell-based; details: dose response in oocytes, unit M
T4 sequence (A0A7T3KAF8 1-415): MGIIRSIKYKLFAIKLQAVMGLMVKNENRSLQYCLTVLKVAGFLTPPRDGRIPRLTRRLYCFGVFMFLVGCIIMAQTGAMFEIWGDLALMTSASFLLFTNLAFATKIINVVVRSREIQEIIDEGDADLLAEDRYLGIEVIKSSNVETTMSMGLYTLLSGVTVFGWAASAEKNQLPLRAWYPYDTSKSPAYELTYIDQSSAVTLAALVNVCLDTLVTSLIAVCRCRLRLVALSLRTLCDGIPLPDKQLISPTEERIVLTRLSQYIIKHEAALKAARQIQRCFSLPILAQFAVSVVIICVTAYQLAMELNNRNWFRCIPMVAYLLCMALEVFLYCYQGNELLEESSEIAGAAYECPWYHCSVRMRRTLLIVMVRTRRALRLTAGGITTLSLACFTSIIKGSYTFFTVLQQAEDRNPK
Method: as §1, §2

Chain of HarmOR42 (A0A7T3KAF6 entry or part of it): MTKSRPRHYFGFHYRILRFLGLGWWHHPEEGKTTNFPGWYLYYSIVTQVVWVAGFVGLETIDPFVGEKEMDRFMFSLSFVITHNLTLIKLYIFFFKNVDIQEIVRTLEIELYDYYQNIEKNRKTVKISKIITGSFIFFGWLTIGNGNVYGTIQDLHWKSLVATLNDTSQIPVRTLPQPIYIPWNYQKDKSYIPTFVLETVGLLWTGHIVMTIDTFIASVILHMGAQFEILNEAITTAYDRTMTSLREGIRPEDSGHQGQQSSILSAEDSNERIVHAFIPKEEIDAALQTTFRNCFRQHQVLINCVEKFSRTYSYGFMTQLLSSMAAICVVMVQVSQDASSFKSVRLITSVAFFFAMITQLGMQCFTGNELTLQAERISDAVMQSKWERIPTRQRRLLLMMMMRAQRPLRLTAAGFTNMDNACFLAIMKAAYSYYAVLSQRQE
Chain of HarmOR59 (A0A7T3KAU6 entry or part of it): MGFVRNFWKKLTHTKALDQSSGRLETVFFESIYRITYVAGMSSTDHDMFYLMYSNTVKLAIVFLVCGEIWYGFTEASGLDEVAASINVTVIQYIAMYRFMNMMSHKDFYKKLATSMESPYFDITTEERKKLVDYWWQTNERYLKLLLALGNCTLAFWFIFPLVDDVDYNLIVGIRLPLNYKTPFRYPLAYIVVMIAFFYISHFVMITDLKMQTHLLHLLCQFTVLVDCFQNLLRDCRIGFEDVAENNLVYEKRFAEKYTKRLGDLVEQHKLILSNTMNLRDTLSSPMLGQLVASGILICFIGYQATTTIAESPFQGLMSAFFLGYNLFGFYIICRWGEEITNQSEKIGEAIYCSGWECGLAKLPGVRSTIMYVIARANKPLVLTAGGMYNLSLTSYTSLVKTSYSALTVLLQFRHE
Chain of HarmOR31 (A0A7T3N2E9 entry or part of it): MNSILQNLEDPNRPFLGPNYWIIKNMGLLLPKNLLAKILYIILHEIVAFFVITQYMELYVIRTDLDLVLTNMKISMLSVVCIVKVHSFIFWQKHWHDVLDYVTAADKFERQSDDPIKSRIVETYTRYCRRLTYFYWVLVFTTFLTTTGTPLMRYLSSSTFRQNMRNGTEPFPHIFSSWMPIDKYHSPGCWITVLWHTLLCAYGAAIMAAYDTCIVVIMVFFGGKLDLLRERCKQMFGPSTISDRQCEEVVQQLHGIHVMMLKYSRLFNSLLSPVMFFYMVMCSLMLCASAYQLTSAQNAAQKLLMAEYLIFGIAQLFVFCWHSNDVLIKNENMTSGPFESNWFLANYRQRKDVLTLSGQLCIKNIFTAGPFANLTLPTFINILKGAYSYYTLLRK
Chain of HarmOR67 (A0A7T3KAH1 entry or part of it): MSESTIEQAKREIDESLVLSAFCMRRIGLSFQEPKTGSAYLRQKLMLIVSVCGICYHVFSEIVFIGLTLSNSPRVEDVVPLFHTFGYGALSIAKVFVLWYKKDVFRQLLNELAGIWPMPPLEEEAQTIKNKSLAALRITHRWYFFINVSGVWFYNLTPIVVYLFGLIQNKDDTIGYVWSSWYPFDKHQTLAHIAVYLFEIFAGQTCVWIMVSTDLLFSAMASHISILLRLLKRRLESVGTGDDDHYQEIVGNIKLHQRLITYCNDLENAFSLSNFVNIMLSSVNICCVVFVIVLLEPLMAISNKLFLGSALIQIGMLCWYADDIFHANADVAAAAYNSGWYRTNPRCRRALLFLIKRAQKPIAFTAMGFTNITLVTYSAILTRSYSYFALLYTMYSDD

Row | SMILES | EAG response of HarmOR42 knock-out mutants compared with wild-type moths [2] | ligand tuning of HarmOR42 (HarmOR42) | EC50 (HarmOR27) | EC50 (HarmOR43) | further results
1 | C[C@@H]1CC[C@H]2C(C)(C)[C@H]3C[C@@]12CC[C@@]3(C)O [Cedrol] |  |  |  |  | EC50 (HarmOR60): 8.6 µM
2 | O=C/C=C/c1ccccc1 [Cinnamaldehyde] | significantly decreased | minor ligands |  |  | EC50 (HarmOR59): 1720 nM; response of EsemOR19 (EsemOR19): very weak current; also recorded: responded; ligand tuning of HarmOR42 orthologs [1]: minor ligands
3 | CCOC(=O)c1ccccc1 [Ethyl benzoate] |  |  | 68.7 µM |  | EC50 (HarmOR31): 13.2 µM; EC50 (HarmOR19): 60.2 µM
4 | CCCCCCC=O [Heptanal] | significantly decreased | minor ligands |  |  | EC50 (HarmOR67): 302 µM
5 | COC(=O)c1ccccc1 [Methyl benzoate] |  |  | 13.1 µM | 15.5 µM | 
6 | COC(=O)c1ccccc1O [Methyl salicylate] |  |  | 15.6 µM | 15.8 µM | 
